# Earlier results in patent publication US20070281995A1, “Creatine analog prodrugs, compositions and uses thereof” (XenoPort, Inc., priority 2006, published 2007).
# Like-named read-outs stand apart in the source and are kept apart here.
# Assays:
# [1] = healthy volunteers, oral creatine administration
# [2] = not given; remark: listed apart in the source
# [3] = animals fed a diet containing up to 1%
smiles,measurement,setting,value
CN(CC(=O)O)C(=N)N.O [creatine monohydrate],adverse side effects,"athletes and body builders, 2-3 gm/day",without adverse side effects
"CN(CC(=O)O)C(=N)N [creatine, Creatine]",increase of cerebral creatine phosphate,[1],about 10%
same,overall increase in creatine phosphate levels,"[2]; creatine supplementation, typically takes weeks",< 50%
same,duration of increases in tissue creatine phosphate levels,[2]; following oral creatine supplementation,> 14 days
CN(CC(=O)O)C(=N)NP(=O)(O)O [creatine phosphate],adverse side effects,"patients with cardiac diseases, intravenous injection up to 8 gm/day",without adverse side effects
NC1=NCCN1CC(=O)O [cyclocreatine],adverse effects,[3],do not exhibit adverse effects
